One data set concerns A934T SLACK. More on the design: method as in PMID 37812884. Conditions: Tl+-flux assay; read-out: IC50 versus A934T SLACK; cited from earlier work.
Details of data set [1]: method as in PMID 37812884. Conditions: cited from earlier work.
In data set [2] the test system is WT SLACK. On the set-up: method as in PMID 37812884. Conditions: whole-cell APC, CHO cells stably expressing WT SLACK; read-out: IC50 versus WT SLACK; cited from earlier work.
For the next data set, the system named is Kcnt1^L/L mice. On the set-up: method as in PMID 36173683. Conditions: mouse model using Kcnt1 L/L mice; cited from earlier work.
A further data set has as its system SLACK. On the set-up: method as in PMID 33859800. Conditions: whole-cell patch-clamp electrophysiology; read-out: IC50 versus WT SLACK; cited from earlier work.
The subject of a further data set is GABAA Cl– channels. On the set-up: method as in PMID 33859800. Conditions: binding displacement assay; cited from earlier work.
The target in a further data set is T1, WT hSLACK (Homo sapiens, UniProt Q5JUK3).
T1 construct: host or cells: CHO-K1
T1 sequence (Q5JUK3 1-1235 isoform Q5JUK3-3): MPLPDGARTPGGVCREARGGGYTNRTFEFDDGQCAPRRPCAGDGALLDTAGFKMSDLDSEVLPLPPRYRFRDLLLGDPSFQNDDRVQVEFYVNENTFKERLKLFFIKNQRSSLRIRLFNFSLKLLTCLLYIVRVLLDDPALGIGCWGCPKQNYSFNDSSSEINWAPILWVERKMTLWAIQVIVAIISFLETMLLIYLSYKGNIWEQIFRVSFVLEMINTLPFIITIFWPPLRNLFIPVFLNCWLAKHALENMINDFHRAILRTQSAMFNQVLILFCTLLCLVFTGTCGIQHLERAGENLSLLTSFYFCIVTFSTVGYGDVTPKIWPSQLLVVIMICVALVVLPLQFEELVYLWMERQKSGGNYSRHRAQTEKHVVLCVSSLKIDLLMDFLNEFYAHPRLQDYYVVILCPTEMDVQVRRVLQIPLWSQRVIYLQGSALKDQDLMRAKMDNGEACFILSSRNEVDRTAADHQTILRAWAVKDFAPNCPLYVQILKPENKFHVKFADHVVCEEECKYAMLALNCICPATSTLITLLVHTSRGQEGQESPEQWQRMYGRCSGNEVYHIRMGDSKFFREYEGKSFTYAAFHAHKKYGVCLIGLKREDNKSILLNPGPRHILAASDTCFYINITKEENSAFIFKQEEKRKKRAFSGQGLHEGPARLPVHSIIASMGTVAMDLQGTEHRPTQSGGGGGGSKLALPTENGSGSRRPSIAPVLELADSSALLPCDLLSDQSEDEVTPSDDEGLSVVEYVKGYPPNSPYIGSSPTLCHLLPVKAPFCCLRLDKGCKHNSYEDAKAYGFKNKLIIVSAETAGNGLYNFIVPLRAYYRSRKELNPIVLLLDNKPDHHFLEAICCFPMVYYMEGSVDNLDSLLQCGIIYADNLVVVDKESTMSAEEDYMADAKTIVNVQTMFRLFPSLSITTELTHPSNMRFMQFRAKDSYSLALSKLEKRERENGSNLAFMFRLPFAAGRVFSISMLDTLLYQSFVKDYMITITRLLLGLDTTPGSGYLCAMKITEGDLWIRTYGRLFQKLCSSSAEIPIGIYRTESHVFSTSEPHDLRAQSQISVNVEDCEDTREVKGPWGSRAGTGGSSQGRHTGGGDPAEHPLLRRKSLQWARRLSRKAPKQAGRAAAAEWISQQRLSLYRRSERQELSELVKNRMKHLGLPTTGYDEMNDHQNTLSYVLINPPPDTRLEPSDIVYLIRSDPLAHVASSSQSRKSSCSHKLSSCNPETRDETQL
Description: Whole-cell automated patch-clamp (APC) in CHO cells stably expressing WT hSLACK. In kind it is cell-based. Conditions: for SLACK Imax: maximum inhibition at 30 µM test compound standardized to VU0606170 (set at 100%), WT hSLACK; for IC50: whole-cell APC, CHO cells stably expressing WT hSLACK, averages n ≥ 3, read-out: SLACK IC50. How it is done: All new analogs were tested in our APC assay using CHO cells stably expressing WT SLACK using a concentration-response format with concentrations ranging from 0.125 to 30 μM in half-log steps and a minimum of three cells (replicates) per concentration series. […] Still, there were some notable results. For example, substitution at the 4-position was largely unfavorable regardless of the nature of the substituent (21, 24, 27, 30, and 33) apart from the 4-fluoro analog 18. […] As the trifluoromethyl group is similar in electronegativity to chlorine, but larger than both methyl and chlorine, perhaps the steric bulk of the trifluoromethyl is to blame for the poor potency of these analogs. With the exception of the fluoro (16–18) and cyano (28–30) analogs, substitution at the 3-position was favorable for SLACK activity, with 3-methoxy analog 32 standing out in this set.
Stably transfected monoclonal HEK293 cell lines expressing Slick, Maxi-K α1/β3, Maxi-K α1/β4, CaV3.2, GIRK 1/2, KV2.1, KV7.2, NaV1.7, and TASK-1 were generated as previously described. Stably transfected monoclonal HEK293 cell lines expressing hERG were generated as previously described. CHO-K1 cells expressing human Slack and disease-associated human Slack mutations, G288S and A934T, were generated by transfecting a PiggyBac TRE mammalian expression vector (VectorBuilder, Chicago, IL, USA) containing KCNT1. FuGENE 6 (Promega, Madison, WI, USA) transfection reagent and protocol, together with Opti-MEM (Thermo Fisher Scientific, Walkham, MA, USA), were utilized.
Automated patch-clamp recording was performed with a SyncroPatch 768 PE system (Nanion, Munich, Germany) as previously described. Whole-cell recordings were performed at room temperature. Cells were harvested by first washing with PBS without Mg^2+ or Ca^2+ (Gibco, Billings, MT, USA) to remove cell culture media, followed by dissociation with TryPLE (Gibco, Billings, MT, USA). Cells were then resuspended and diluted to 100,000 cells/mL in external solution. External solution contained 105 mM NaCl, 4 mM KCl, 1 mM MgCl2, 5 mM CaCl2, 10 mM HEPES, and 40 mM N-Methyl-D-glucamine chloride, titrated to pH of 7.4 and osmolarity of 300 mOsm/kg; internal solution contained 70 mM NaCl, 70 mM KF, 10 mM KCl, 5 mM EGTA, and 5 mM HEPES, titrated to a pH of 7.2 and osmolarity of 295 mOsm/kg.
The APC protocol was set as follows: Cells were held at a […] of −80 mV for 100 ms, then a ramp protocol was performed from −100 mV to 80 mV at 0.4 mV/ms, followed by holding the cell at −80 mV for another 100 ms, then steps were performed at −20 mV, 0 mV, +20 mV, +40 mV, and +60 mV for 100 ms of each step. Whole-cell currents were measured at 0 mV and normalized to current after external buffer addition. […] To obtain the concentration-response relationship graphs and IC50 values, we take the median value of the last 7 current amplitude values obtained for each set of data points collected for a given concentration at a particular step.
In general terms: In patch-clamp work, channel activity is measured electrically.

A further data set deals with hERG (KV11.1) channels. More on the design: method as in PMID 32408169. The conditions noted are these: at 10 µM; cited from earlier work.
In data set [3] the test system is WT SLACK. More on the design: method as in PMID 32408169. The conditions noted are these: whole-cell patch-clamp electrophysiology; read-out: IC50 versus WT SLACK; cited from earlier work.
The subject of a further data set is hERG channel. More on the design: method as in PMID 33143429. Conditions: Tl+-flux assay; cited from earlier work.
Data set [4] has as its system co-cultures of cortical neuronal and glial cells. On the set-up: method as in PMID 33143429. Conditions: cited from earlier work.
For data set [5], the system named is WT SLACK. On the set-up: method as in PMID 33143429. The conditions noted are these: whole-cell APC, HEK-293 cells; read-out: IC50 versus WT SLACK; cited from earlier work.
For data set [6], the system named is WT SLACK. On the set-up: method as in earlier work. Conditions: APC assay; read-out: IC50 versus WT SLACK; cited from earlier work.

Each structure is given as a SMILES string. Where two headings read alike, the source gives them in different places.

Data on 21 molecules can be found in article PMC11173529, “Structure–Activity Relationship Studies in a Series of Xanthine Inhibitors of SLACK Potassium Channels” (Molecules, 2024).

As usually defined, the IC50 is the point on the concentration scale where inhibition reaches its midpoint.

Turning to `Cc1ccc2cccc(S(=O)(=O)N3CC(c4nc(-c5ccc(F)cc5)no4)C3)c2n1` [Compound 7], the IC50 in the data set with A934T SLACK is 670 nM; in the data set with WT SLACK [2] it was 320 nM. In [1], the “metabolism in mouse liver microsomes” value is given as “rapidly metabolized”.

On to `C[C@H](NC(=O)c1cc(C(F)(F)F)nn1C)c1nc(-c2ccnc(C(F)(F)F)c2)no1` [Compound 4], for which, in the data set with Kcnt1^L/L mice, the anticonvulsant effects entry is “demonstrated anticonvulsant effects”. In the data set with SLACK, the IC50 was 40 nM. The “displacement at GABAA Cl– channels” value in the data set on GABAA Cl– channels is listed as 74%.

`CN(Cc1ccncc1)c1nc2c(c(=O)n(Cc3ccccc3)c(=O)n2C)n1C` [Analog 64]: on WT hSLACK, the “SLACK Imax” value is listed as 70% and the IC50 was above 10000 nM.

`CN(Cc1ccccc1F)c1nc2c(c(=O)n(Cc3ccccc3)c(=O)n2C)n1C` [Analog 47]: on WT hSLACK, the “SLACK Imax” value came to 100% and the IC50 worked out at 2700 nM.

As to `O=C(Nc1cccc(C(F)(F)F)c1)c1ccc(CSc2nnnn2-c2ccccc2)cc1` [Compound 3], the “hERG (KV11.1) inhibition” value with hERG (KV11.1) channels is 45%. Besides, the IC50 in the data set on WT SLACK [3] was 1600 nM.

Turning to `CN(Cc1ccccn1)c1nc2c(c(=O)n(Cc3ccccc3)c(=O)n2C)n1C` [Analog 62], at WT hSLACK, the “SLACK Imax” value came out at 107% and the half-maximal inhibitory concentration (IC50) was above 10000 nM.

On to `CN(Cc1ccc(F)cc1)c1nc2c(c(=O)n(Cc3ccccc3)c(=O)n2C)n1C` [Analog 49], for which, at WT hSLACK, the “SLACK Imax” value is reported as 100% and the half-maximal inhibitory concentration (IC50) was determined as 1600 nM.

`Cc1cccc(CC(=O)Nc2cnn(-c3cccc(C(=O)NCc4ccccc4-n4cncn4)c3)c2)c1` [Compound 1]: the “hERG (KV11.1) inhibition” value with hERG (KV11.1) channels was “almost completely inhibited”. Further, in the data set with WT SLACK [3], the IC50 is 3200 nM.

Consider `Cc1cccc(Cn2c(=O)c3c(nc(N(C)Cc4ccccc4)n3C)n(C)c2=O)c1` [Analog 23], for which, at WT hSLACK, the “SLACK Imax” value is 100% and the IC50 was determined as 1500 nM.

As to `COc1ccc(Cn2c(=O)c3c(nc(N(C)Cc4ccccc4)n3C)n(C)c2=O)cc1` [Analog 33], on WT hSLACK, the “SLACK Imax” value is 78% and the IC50 is above 10000 nM.

For the molecule `COc1ccc(Cl)cc1NC(=O)CN1CCN(S(=O)(=O)N2CCC(C)CC2)CC1` [Compound 6], the IC50 is above 10 µM with hERG channel and 1700 nM with WT SLACK [5]. The “frequency of spontaneous calcium oscillations” value in [4] is given as “inhibited the frequency of spontaneous calcium oscillations”.

On to `Cn1c(N2Cc3ccccc3C2)nc2c1c(=O)n(Cc1ccccc1)c(=O)n2C` [Analog 74], for which the “SLACK activity (in words)” value at WT hSLACK (APC, WT SLACK) was “inactive”.

For `CN(Cc1ccccc1Cl)c1nc2c(c(=O)n(Cc3ccccc3)c(=O)n2C)n1C` [Analog 50], at WT hSLACK, the “SLACK Imax” value is 100% and the IC50 was determined as 3000 nM.

As to `Cn1c(N(Cc2ccccc2)Cc2ccccc2)nc2c1c(=O)n(Cc1ccccc1)c(=O)n2C` [Analog 72], at WT hSLACK, the “SLACK Imax” value is recorded as 100% and the IC50 amounted to 1400 nM.

Consider `CN(Cc1cccc(C(F)(F)F)c1)c1nc2c(c(=O)n(Cc3ccccc3)c(=O)n2C)n1C` [Analog 57], for which, at WT hSLACK, the “SLACK Imax” value is on record as 101% and the IC50 worked out at 1500 nM.

Turning to `CCn1c(N(C)Cc2ccccc2)nc2c1c(=O)n(Cc1ccccc1)c(=O)n2C` [Analog 41], at WT hSLACK, the “SLACK Imax” value turned out to be 87% and the IC50 was above 10000 nM.

For the molecule `CN(Cc1cccc(Cl)c1)c1nc2c(c(=O)n(Cc3ccccc3)c(=O)n2C)n1C` [Analog 51], on WT hSLACK, the “SLACK Imax” value was 100% and the IC50 was 1700 nM.

For `O=C(N[C@@H]1CCc2cc(Cl)ccc21)c1ccc(S(=O)(=O)N2CCCC2)s1` [Compound 5], in the data set on WT SLACK [6], the IC50 was below 1000 nM.

As to `O=C(Nc1cccc(C(F)(F)F)c1)c1ccc2nc(N3C(=O)c4ccccc4C3=O)sc2c1` [Compound 2], the “hERG (KV11.1) inhibition” value in the data set with hERG (KV11.1) channels is listed as 10–20%. Further, the IC50 with WT SLACK [3] is 3000 nM.

With `COc1ccc(CN(C)c2nc3c(c(=O)n(Cc4ccccc4)c(=O)n3C)n2C)cc1` [Analog 61], on WT hSLACK, the “SLACK Imax” value was determined as 100% and the IC50 was found to be 2400 nM.

Take `CN(Cc1ccccc1)c1nc2c(c(=O)n(Cc3ccccc3Cl)c(=O)n2C)n1C` [Analog 19]: on WT hSLACK, the “SLACK Imax” value is given as 89% and the IC50 is 2000 nM.
